Laboratory results reported in BindingDB's records for doi:10.1021/jm0496335 (2005).
Values joined by “and” are separate entries in the source; they are usually repeats but may differ in a detail not shown here. Identical values can stand only once.

Biological target: Somatostatin receptor type 2 (Mus musculus, UniProt P30875)
Experiment: Inhibition of [125I][Leu8,D-Trp22,[…]]somatostatin-28 binding to somatostatin receptor 2

Sequence of Somatostatin receptor type 2 (P30875 whole entry): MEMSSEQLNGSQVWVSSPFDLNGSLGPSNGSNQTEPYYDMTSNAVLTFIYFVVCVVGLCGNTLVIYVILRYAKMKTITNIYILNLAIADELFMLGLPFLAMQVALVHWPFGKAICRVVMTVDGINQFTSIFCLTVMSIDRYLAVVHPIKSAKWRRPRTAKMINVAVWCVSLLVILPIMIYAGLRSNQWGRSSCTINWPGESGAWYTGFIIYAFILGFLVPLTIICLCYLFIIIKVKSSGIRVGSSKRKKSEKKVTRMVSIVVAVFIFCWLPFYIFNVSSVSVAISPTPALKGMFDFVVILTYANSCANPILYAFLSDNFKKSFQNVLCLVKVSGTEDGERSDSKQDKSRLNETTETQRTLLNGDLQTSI

- IC50: 0.46 nM and 2.2 nM
Compound: C[C@H](O)[C@@H]1NC(=O)[C@H](CCCCN)NC(=O)[C@@H](Cc2c[nH]c3ccccc23)NC(=O)[C@H](Cc2ccc(O)cc2)NC(=O)[C@@H](NC(=O)[C@@H](Cc2ccccc2)NC(=O)CN2CCN(CC(=O)O)CCN(CC(=O)O)CCN(CC(=O)O)CC2)CSSCC(C(=O)N[C@H](CO)[C@H](C)O)NC1=O (stereo partly specified)
